Results published in ChEMBL document CHEMBL5579867, “Ligand-Based Pharmacophoric Design and Anti-inflammatory Evaluation of Triazole Linked Semisynthetic Labdane Conjugates” (ACS Med Chem Lett, 2024).
Each block holds one compound with its values, some of them ahead of it. Active and inactive are the calls of the source. No cut-off for these calls is given here.

What was measured:
RAW264.7 [1] = test: Antiinflammatory activity in LPS-induced mouse RAW264.7 cells assessed as increase in IL-10 production pretreated for 1 hr followed by LPS stimulation and measured after 24 hrs by ELISA; assay type: functional, cell-based; settings: dose 1-10 µM, time 25.0 hrs
RAW264.7 [2] = test: Inhibition of LPS-induced NF-kappaB activation in mouse RAW264.7 cells assessed as inhibition of p65 phosphorylation pretreated for 1 hr followed by LPS stimulation and measured after 24 hrs by Western blot analysis; assay type: cell-based; settings: dose 10-20 µM, time 25.0 hrs
RAW264.7 [3] = test: Antiinflammatory activity in LPS-induced mouse RAW264.7 cells assessed as inhibition of IL-6 production pretreated for 1 hr followed by LPS stimulation and measured after 24 hrs by ELISA; assay type: functional, cell-based; settings: dose 1-10 µM, time 25.0 hrs
RAW264.7 [4] = test: Antiinflammatory activity in LPS-induced mouse RAW264.7 cells assessed as inhibition of TNF-alpha production at 20 uM pretreated for 1 hr followed by LPS stimulation and measured after 24 hrs by ELISA; assay type: functional, cell-based; settings: time 25.0 hrs
RAW264.7 [5] = test: Antiinflammatory activity in LPS-induced mouse RAW264.7 cells assessed as inhibition of NO production pretreated for 1 hr followed by LPS stimulation and measured after 23 hrs by Griess method; assay type: functional, cell-based
RAW264.7 [6] = test: Antiinflammatory activity in LPS-induced mouse RAW264.7 cells assessed as inhibition of NO production at 1 to 20 uM pretreated for 1 hr followed by LPS stimulation and measured after 23 hrs by Griess method; assay type: functional, cell-based; settings: dose 1-20 µM, time 24.0 hrs
RAW264.7 [7] = test: Antiinflammatory activity in LPS-induced mouse RAW264.7 cells assessed as inhibition of IL-6 production at 20 uM pretreated for 1 hr followed by LPS stimulation and measured after 24 hrs by ELISA; assay type: functional, cell-based; settings: time 25.0 hrs
RAW264.7 [8] = test: Antiinflammatory activity in LPS-induced mouse RAW264.7 cells assessed as reduction in iNOS protein expression pretreated for 1 hr followed by LPS stimulation and measured after 24 hrs by Western blot analysis; assay type: functional, cell-based; settings: dose 10-20 µM, time 25.0 hrs
RAW264.7 [9] = test: Cytotoxicity against mouse RAW264.7 cells assessed as reduction in cell viability at 1 to 20 uM incubated for 24 hrs by MTT assay; assay type: toxicity, cell-based; settings: raw264.7, 24 h, dose 1-20 µM
RAW264.7 [10] = test: Antiinflammatory activity in LPS-induced mouse RAW264.7 cells assessed as reduction in COX-2 protein expression pretreated for 1 hr followed by LPS stimulation and measured after 24 hrs by Western blot analysis; assay type: functional, cell-based; settings: dose 10-20 µM, time 25.0 hrs
RAW264.7 [11] = test: Inhibition of LPS-induced NF-kappaB activation in mouse RAW264.7 cells assessed as reduction in nuclear translocation pretreated for 1 hr followed by LPS stimulation and measured after 24 hrs by immunofluorescence staining based fluorescence microscopic analysis; assay type: cell-based; settings: dose 10-20 µM, time 25.0 hrs
RAW264.7 [12] = test: Effect on NF-kappaB p65 protein expression in LPS-induced mouse RAW264.7 cells at 10 to 20 uM pretreated for 1 hr followed by LPS stimulation and measured after 24 hrs by Western blot analysis; assay type: functional, cell-based; settings: dose 10-20 µM, time 25.0 hrs
RAW264.7 [13] = test: Antiinflammatory activity in LPS-induced mouse RAW264.7 cells assessed as inhibition of TNF-alpha production pretreated for 1 hr followed by LPS stimulation and measured after 24 hrs by ELISA; assay type: functional, cell-based; settings: dose 1-10 µM, time 25.0 hrs
[14] = Inhibition of TNF-alpha induced ICAM-1 protein expression in HUVEC cells; assay type: functional, cell-based; settings: Homo sapiens
[15] = molecular target: T1, Polyunsaturated fatty acid lipoxygenase ALOX15 (Homo sapiens, UniProt P16050); test: Inhibition of LOX-15 (unknown origin)
T1 sequence (P16050 whole entry): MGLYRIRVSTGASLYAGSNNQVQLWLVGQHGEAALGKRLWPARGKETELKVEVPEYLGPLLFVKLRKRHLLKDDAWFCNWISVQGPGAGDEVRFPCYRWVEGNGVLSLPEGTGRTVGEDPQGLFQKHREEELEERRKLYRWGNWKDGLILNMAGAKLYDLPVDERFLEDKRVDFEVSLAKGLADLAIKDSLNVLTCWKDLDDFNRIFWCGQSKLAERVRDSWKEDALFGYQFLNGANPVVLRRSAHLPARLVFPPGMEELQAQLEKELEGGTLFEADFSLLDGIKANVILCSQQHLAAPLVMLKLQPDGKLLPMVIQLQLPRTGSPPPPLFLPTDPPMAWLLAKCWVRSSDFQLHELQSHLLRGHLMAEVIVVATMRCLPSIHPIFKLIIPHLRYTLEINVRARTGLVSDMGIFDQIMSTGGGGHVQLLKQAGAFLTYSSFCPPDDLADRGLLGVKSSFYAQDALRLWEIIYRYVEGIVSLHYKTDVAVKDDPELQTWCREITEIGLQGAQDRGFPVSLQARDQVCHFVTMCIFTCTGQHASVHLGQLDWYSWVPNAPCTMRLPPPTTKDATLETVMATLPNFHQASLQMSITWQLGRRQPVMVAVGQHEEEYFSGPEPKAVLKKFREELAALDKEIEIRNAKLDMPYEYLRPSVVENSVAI

IC50 (RAW264.7 [5]): 3.13 µM
Compound: C=C1CC[C@H]2C(C)(C)CCC[C@]2(C)[C@H]1C/C=C(/C=O)CC(=O)OCc1cn(CCN2C(=O)C(=O)c3ccccc32)nn1
Activity (RAW264.7 [1]): Dose-Dependent Effect
inhibition (RAW264.7 [2]): Dose-Dependent Effect
Activity (RAW264.7 [3]): Dose-Dependent Effect
Activity (RAW264.7 [4]): Active
Activity (RAW264.7 [6]): Active
Activity (RAW264.7 [7]): Active
Activity (RAW264.7 [8]): Dose-Dependent Effect
Activity (RAW264.7 [9]): Non-Toxic
Activity (RAW264.7 [10]): Dose-Dependent Effect
inhibition (RAW264.7 [11]): Dose-Dependent Effect
Activity (RAW264.7 [12]): inactive
Activity (RAW264.7 [13]): Dose-Dependent Effect

IC50 [14]: 20 µM
Compound: COc1ccc(N/N=C2\C(=O)N(CCCn3cncn3)c3ccc(Br)cc32)cc1

IC50 [15]: 1.58 µM
Compound: CN(C)c1ccc(/C=C/C(=O)c2cccc(-n3cc(CN4C(=O)C(=O)c5ccccc54)nn3)c2)cc1
